Measured values published in PubChem BioAssay (NCI).
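Grown in 96-well plates, cells were treated for 48 hours with each compound at five concentrations. Insufficient inhibition: endpoint recorded as highest concentration tested. The concentration for full growth arrest is given as TGI.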

Tests used:
Assay in all cases: inhibition of tumour cell growth, NCI panel, 48 h
[1] = tested on: CCRF-CEM leukemia
[2] = tested on: HOP-92 NSCLC
[3] = tested on: A549 NSCLC
[4] = tested on: OVCAR-8 ovarian
[5] = tested on: K-562 leukemia
[6] = tested on: SK-MEL-28 melanoma
[7] = tested on: HOP-62 NSCLC
[8] = tested on: T-47D breast
[9] = tested on: A498 renal
[10] = tested on: MOLT-4 leukemia
[11] = tested on: NCI-H226 lung
[12] = tested on: DU-145 prostate
[13] = tested on: HCT-15 colon
[14] = tested on: SF-539 CNS
[15] = tested on: 786-0 renal
[16] = tested on: U251 CNS
[17] = tested on: UO-31 renal
[18] = tested on: BT-549 breast
[19] = tested on: MDA-MB-231 breast
[20] = tested on: SF-268 CNS
[21] = tested on: OVCAR-5 ovarian
[22] = tested on: ACHN renal
[23] = tested on: NCI/ADR-RES ovarian
[24] = tested on: MDA-N
[25] = tested on: KM12 colon
[26] = tested on: M14 melanoma
[27] = tested on: MALME-3M melanoma
[28] = tested on: NCI-H23 lung
[29] = tested on: SK-MEL-2 melanoma
[30] = tested on: EKVX NSCLC
[31] = tested on: TK-10 renal
[32] = tested on: HT29 colon
[33] = tested on: HCC-2998 colon
[34] = tested on: MCF7 breast
[35] = tested on: OVCAR-3 ovarian
[36] = tested on: RXF 393 renal
[37] = tested on: SW-620 colon
[38] = tested on: HL-60(TB) leukemia
[39] = tested on: NCI-H460 lung
[40] = tested on: PC-3 prostate
[41] = tested on: SF-295 CNS
[42] = tested on: IGROV1 ovarian
[43] = tested on: SK-MEL-5 melanoma
[44] = tested on: HS 578T breast
[45] = tested on: MDA-MB-435
[46] = tested on: UACC-62 melanoma
[47] = tested on: SK-OV-3 ovarian
[48] = tested on: SN12C renal
[49] = tested on: SNB-19 CNS
[50] = tested on: HCT-116 colon
[51] = tested on: OVCAR-4 ovarian
[52] = tested on: UACC-257 melanoma
[53] = tested on: SNB-75 CNS
[54] = tested on: NCI-H522 lung
[55] = tested on: CAKI-1 renal
[56] = tested on: RPMI-8226 leukemia
[57] = tested on: SR leukemia
[58] = tested on: LOX IMVI melanoma

Measured: TGI

CC1(C)C2CC(=O)C1(C)C(O)C2Br (stereo not given)
> 100 µM: [1] | [2] | [3] | [4] | [5] | [6] | [7] | [8] | [9] | [10] | [11] | [12] | [13] | [14] | [15] | [16] | [17] | [18] | [19] | [20] | [21] | [22] | [23] | [24] | [25] | [26] | [27] | [28] | [29] | [30] | [31] | [32] | [33] | [34] | [35] | [36] | [37] | [38] | [39] | [40] | [41] | [42] | [43] | [44] | [45] | [46] | [47] | [48] | [49] | [50]

O=c1ccn(C2OC(CO)C(P(=O)(O)O)C2O)c(=O)[nH]1 (stereo not given)
> 100 µM: [1] | [2] | [3] | [4] | [5] | [6] | [7] | [51] | [8] | [9] | [52] | [10] | [11] | [12] | [53] | [13] | [14] | [15] | [16] | [17] | [18] | [19] | [20] | [54] | [21] | [22] | [24] | [25] | [26] | [27] | [28] | [29] | [30] | [31] | [55] | [32] | [33] | [34] | [35] | [56] | [36] | [57] | [37] | [38] | [39] | [40] | [41] | [42] | [58] | [43] | [44] | [46] | [48] | [49] | [50]
